According to patent US10604531B2, “Enhancer of zeste homolog 2 inhibitors” (GLAXOSMITHKLINE INTELLECTUAL PROPERTY (NO.2) LIMITED, priority 2016, dated 2020):

Key:
[1] = target: EZH2 within the PRC2 complex (FLAG-EZH2, EED, SUZ12, RbAp48, AEBP2) (Homo sapiens (Human), UniProt Q15910); experiment: EZH2 methyltransferase scintillation proximity assay (SPA), PRC2 complex; format: biochemical; settings: 3H-SAM, biotinylated histone H3K27 peptide, 60 min at room temperature; values of 10 nM approach the assay's limit of detection
Experimental: Compounds contained herein were evaluated for their ability to inhibit the methyltransferase activity of EZH2 within the PRC2 complex. Human PRC2 complex was prepared by co-expressing each of the 5 member proteins (FLAG-EZH2, EED, SUZ12, RbAp48, AEBP2) in Sf9 cells followed by co-purification. Enzyme activity was measured in a scintillation proximity assay (SPA) where a tritiated methyl group is transferred from 3H-SAM to a lysine residue on a biotinylated, unmethylated peptide substrate derived from histone H3. The peptides were captured on streptavidin-coated SPA beads and the resulting signal was read on a ViewLux plate reader.
Part A. Compound Preparation
• 1. Prepare 10 mM stock of compounds from solid in 100% DMSO. • 2. Set up an 11-point serial dilution (1:4 dilution, top concentration 10 mM) in 100% DMSO for each test compound in a 384 well plate leaving columns 6 and 18 for DMSO controls. • 3. Dispense 10 nL of compound from the dilution plate into reaction plates (Corning, 384-well polystyrene NBS, Cat #3673). Part B. Reagent Preparation Prepare the following solutions: • 1. 1× Base Buffer, 50 mM Tris-HCl, pH 8, 2 mM MgCl2: Per 1 L of base buffer, combine 1 M Tris-HCl, pH 8 (50 mL), 1 M MgCl2 (2 mL), and distilled water (948 mL). • 2. 1× Assay Buffer: Per 10 mL of 1× Assay Buffer, combine 1× Base Buffer (9.96 mL), 1 M DTT (40 uL), and 10% Tween-20 (1 uL) to provide a final concentration of 50 mM Tris-HCl, pH 8, 2 mM MgCl2, 4 mM DTT, 0.001% Tween-20. • 3. 2× Enzyme Solution: Per 10 mL of 2× Enzyme Solution, combine 1× Assay Buffer (9.99 mL) and 3.24 uM EZH2 5 member complex (6.17 uL) to provide a final enzyme concentration of 1 nM. • 4. SPA Bead Solution: Per 1 mL of SPA Bead Solution, combine Streptavidin coated SPA beads (PerkinElmer, Cat # RPNQ0261, 40 mg) and 1× Assay Buffer (1 mL) to provide a working concentration of 40 mg/mL. • 5. 2× Substrate Solution: Per 10 mL of 2× Substrate Solution, combine 40 mg/mL SPA Bead Solution (375 uL), 1 mM biotinylated histone H3K27 peptide (200 uL), 12.5 uM 3H-SAM (240 uL; 1 mCi/mL), 1 mM cold SAM (57 uL), and 1× Assay Buffer (9.13 mL) to provide a final concentration of 0.75 mg/mL SPA Bead Solution, 10 uM biotinylated histone H3K27 peptide, 0.15 uM 3H-SAM (˜12 uCi/mL 3H-SAM), and 2.85 uM cold SAM. • 6. 2.67× Quench Solution: Per 10 mL of 2.67× Quench Solution, combine 1× Assay Buffer (9.73 mL) and 10 mM cold SAM (267 uL) to provide a final concentration of 100 uM cold SAM. Part C. Assay Reaction in 384-well Grenier Bio-One Plates Compound Addition • 1. Stamp 10 nL/well of 1000× Compound to test wells (as noted above). • 2. Stamp 10 nL/well of 100% DMSO to columns 6 & 18 (high and low controls, respectively). Assay • 1. Dispense 5 uL/well of 1× Assay Buffer to column 18 (low control reactions). • 2. Dispense 5 uL/well of 2× Substrate Solution to columns 1-24 (note: substrate solution should be mixed to ensure homogeneous bead suspension before dispensing into matrix reservoir). • 3. Dispense 5 uL/well of 2× Enzyme Solution to columns 1-17, 19-24. • 4. Incubate the reaction for 60 min at room temperature. Quench • 1. Dispense 6 uL/well of the 2.67× Quench Solution to columns 1-24. • 2. Seal assay plates and spin for ˜1 min at 500 rpm. • 3. Dark adapt plates in the ViewLux instrument for 15-60 min. Read Plates • 1. Read the assay plates on the Viewlux Plate Reader utilizing the 613 nm emission filter or clear filter (300 s exposure). Reagent addition can be done manually or with automated liquid handler. Results
Percent inhibition was calculated relative to the DMSO control for each compound concentration and the resulting values were fit using standard IC50 fitting parameters within the ABASE data fitting software package.

[2] = for XRPD after DVS experiment: form change or change in crystallinity: post DVS sample

Chain of EZH2 within the PRC2 complex (FLAG-EZH2, EED, SUZ12, RbAp48, AEBP2) (Q15910 whole entry): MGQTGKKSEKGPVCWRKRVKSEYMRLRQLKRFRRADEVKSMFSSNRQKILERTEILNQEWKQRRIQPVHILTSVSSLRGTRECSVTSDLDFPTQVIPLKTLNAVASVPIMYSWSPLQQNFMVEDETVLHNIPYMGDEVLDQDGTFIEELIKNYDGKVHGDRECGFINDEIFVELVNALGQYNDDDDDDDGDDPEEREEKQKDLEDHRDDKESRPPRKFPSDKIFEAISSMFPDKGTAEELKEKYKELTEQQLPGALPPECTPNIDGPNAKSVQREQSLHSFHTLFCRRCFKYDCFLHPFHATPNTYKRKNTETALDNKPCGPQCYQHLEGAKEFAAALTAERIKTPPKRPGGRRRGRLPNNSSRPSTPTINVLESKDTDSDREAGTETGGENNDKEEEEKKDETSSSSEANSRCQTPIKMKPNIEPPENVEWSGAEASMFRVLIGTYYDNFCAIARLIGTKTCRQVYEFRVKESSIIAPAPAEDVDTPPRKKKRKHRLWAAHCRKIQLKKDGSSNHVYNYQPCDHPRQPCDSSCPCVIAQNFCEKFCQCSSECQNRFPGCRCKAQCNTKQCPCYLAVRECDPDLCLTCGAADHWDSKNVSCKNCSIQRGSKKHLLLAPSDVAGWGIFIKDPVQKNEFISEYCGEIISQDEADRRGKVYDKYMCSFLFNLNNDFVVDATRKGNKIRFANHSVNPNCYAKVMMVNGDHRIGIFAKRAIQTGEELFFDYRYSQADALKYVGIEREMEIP
Chain of EZH2 within the PRC2 complex (FLAG-EZH2, EED, SUZ12, RbAp48, AEBP2) (O75530 whole entry partner): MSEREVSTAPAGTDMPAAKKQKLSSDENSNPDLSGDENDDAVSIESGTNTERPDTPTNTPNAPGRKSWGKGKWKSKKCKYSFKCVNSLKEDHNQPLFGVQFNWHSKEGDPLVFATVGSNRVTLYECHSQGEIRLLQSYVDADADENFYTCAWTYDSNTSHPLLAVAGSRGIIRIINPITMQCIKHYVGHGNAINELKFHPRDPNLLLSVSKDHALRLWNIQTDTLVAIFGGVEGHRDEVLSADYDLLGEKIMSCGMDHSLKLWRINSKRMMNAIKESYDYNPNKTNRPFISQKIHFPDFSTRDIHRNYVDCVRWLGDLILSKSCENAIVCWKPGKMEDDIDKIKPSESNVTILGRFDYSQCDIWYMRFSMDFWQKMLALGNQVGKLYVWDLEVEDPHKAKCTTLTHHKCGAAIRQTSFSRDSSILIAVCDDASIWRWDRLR
Chain of EZH2 within the PRC2 complex (FLAG-EZH2, EED, SUZ12, RbAp48, AEBP2) (Q15022 whole entry partner): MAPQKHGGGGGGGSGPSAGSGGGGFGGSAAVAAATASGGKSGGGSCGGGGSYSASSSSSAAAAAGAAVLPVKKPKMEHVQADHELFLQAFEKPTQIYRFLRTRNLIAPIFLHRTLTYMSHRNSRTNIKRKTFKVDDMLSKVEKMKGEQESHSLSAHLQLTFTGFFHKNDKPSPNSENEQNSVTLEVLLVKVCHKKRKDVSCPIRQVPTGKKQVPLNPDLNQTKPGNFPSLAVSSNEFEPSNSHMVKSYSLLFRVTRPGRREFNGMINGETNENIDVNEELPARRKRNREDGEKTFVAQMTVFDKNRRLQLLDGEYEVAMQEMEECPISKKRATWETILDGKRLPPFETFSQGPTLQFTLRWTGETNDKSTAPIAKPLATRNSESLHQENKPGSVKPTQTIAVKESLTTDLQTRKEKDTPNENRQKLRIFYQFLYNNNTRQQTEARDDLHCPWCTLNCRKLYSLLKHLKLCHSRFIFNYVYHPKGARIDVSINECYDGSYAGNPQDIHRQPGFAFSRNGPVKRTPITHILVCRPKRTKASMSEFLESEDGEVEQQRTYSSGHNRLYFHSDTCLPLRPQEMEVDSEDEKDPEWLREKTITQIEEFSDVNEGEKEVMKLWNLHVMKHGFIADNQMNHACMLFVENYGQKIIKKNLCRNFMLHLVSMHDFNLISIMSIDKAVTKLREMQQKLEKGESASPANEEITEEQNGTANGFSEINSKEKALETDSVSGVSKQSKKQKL
Chain of EZH2 within the PRC2 complex (FLAG-EZH2, EED, SUZ12, RbAp48, AEBP2) (Q09028 whole entry partner): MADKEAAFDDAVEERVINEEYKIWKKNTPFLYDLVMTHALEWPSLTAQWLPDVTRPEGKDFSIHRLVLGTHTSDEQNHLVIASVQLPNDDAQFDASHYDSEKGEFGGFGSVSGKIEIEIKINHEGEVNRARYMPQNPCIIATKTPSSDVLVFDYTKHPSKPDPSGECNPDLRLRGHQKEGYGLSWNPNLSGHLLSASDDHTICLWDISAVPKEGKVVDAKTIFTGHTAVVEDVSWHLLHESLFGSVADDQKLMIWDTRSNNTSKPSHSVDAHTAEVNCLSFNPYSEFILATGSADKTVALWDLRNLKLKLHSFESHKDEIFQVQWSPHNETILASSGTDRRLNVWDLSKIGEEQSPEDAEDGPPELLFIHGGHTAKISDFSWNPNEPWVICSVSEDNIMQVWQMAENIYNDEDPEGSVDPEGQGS
Chain of EZH2 within the PRC2 complex (FLAG-EZH2, EED, SUZ12, RbAp48, AEBP2) (Q6ZN18 whole entry partner): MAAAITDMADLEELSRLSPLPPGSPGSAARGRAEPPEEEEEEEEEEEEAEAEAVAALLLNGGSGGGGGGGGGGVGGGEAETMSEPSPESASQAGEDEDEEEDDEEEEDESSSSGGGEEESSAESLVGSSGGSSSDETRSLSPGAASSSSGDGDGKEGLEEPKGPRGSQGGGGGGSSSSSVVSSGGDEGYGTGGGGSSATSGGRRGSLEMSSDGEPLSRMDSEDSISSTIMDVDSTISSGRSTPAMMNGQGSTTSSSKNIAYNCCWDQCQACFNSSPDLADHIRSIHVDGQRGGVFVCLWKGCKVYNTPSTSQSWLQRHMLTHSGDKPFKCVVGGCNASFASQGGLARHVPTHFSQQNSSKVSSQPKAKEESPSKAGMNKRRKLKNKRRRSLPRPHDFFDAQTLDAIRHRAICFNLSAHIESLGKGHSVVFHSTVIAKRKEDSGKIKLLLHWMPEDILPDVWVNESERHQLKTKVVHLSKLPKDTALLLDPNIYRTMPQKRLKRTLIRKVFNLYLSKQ

Row | Structure (SMILES) | IC50 [1] | also measured
1 | Cc1cc(C)c(CN2CCCc3sc([C@H](C)C4CCN(CC5CC5)CC4)c(C)c3C2=O)c(=O)[nH]1 [Example 7, (R)-2-(1-(1-(Cyclopropylmethyl)piperidin-4-yl)ethyl)-5-((4,6-dimethyl-2-oxo-1,2-dihydropyridin-3-yl)methyl)-3-methyl-5,6,7,8-tetrahydro-4H-thieno[3,2-c]azepin-4-one] | ≤ 10 nM | 
2 | Cc1cc(C)c(CN2CCCc3sc([C@H](C)C4CCN(CC(C)(C)C)CC4)c(C)c3C2=O)c(=O)[nH]1.Cl [hydrochloric acid salt of (R)-5-((4,6-dimethyl-2-oxo-1,2-dihydropyridin-3-yl)methyl)-3-methyl-2-(1-(1-neopentylpiperidin-4-yl)ethyl)-5,6,7,8-tetrahydro-4H-thieno[3,2-c]azepin-4-one] |  | DVS total moisture uptake ([2]; first cycle from 40-75% RH): 0.5%; XRPD after DVS experiment: form change or change in crystallinity [2]: did not indicate a form change or change in crystallinity; DVS decrease ([2]; second cycle, between 80-90% RH): 0.4%; DVS sorption ([2]; second cycle, from 5-80% RH): 1.0%
3 | Cc1cc(C)c(CN2CCCc3sc([C@H](C)C4CCN(CC5(C)CCC5)CC4)c(C)c3C2=O)c(=O)[nH]1 [Example 10, (R)-5-((4,6-Dimethyl-2-oxo-1,2-dihydropyridin-3-yl)methyl)-3-methyl-2-(1-(1-((1-methylcyclobutyl)methyl)piperidin-4-yl)ethyl)-5,6,7,8-tetrahydro-4H-thieno[3,2-c]azepin-4-one] | ≤ 10 nM | 
4 | Cc1cc(C)c(CN2CCCc3sc([C@H](C)C4CCN(CC5(C)CCC5)CC4)c(C)c3C2=O)c(=O)[nH]1.Cl [hydrochloric acid salt of (R)-5-((4,6-dimethyl-2-oxo-1,2-dihydropyridin-3-yl)methyl)-3-methyl-2-(1-(1-((1-methylcyclobutyl)methyl)piperidin-4-yl)ethyl)-5,6,7,8-tetrahydro-4H-thieno[3,2-c]azepin-4-one] |  | hygroscopicity ([2]; DVS isotherm 5-95% RH): low level of hygroscopicity; DVS moisture uptake ([2]; between 5-75% RH): ~0.5%; DVS total uptake of water ([2]; from 5-95% RH): 0.6%; XRPD after DVS experiment: form change or change in crystallinity [2]: did not show a change in crystal form or crystallinity
5 | Cc1cc(C)c(CN2CCCc3sc([C@H](C)C4CCN(CC(C)(C)F)CC4)c(C)c3C2=O)c(=O)[nH]1 [Example 6, (R)-5-((4,6-Dimethyl-2-oxo-1,2-dihydropyridin-3-yl)methyl)-2-(1-(1-(2-fluoro-2-methylpropyl)piperidin-4-yl)ethyl)-3-methyl-5,6,7,8-tetrahydro-4H-thieno[3,2-c]azepin-4-one] | ≤ 10 nM | 
6 | Cc1cc(C)c(CN2CCCc3sc([C@H](C)C4CCN(CC5(C)CCCC5)CC4)c(C)c3C2=O)c(=O)[nH]1 [Example 8, (R)-5-((4,6-Dimethyl-2-oxo-1,2-dihydropyridin-3-yl)methyl)-3-methyl-2-(1-(1-((1-methylcyclopentyl)methyl)piperidin-4-yl)ethyl)-5,6,7,8-tetrahydro-4H-thieno[3,2-c]azepin-4-one] | ≤ 10 nM | 
7 | Cc1cc(C)c(CN2CCCc3sc([C@H](C)C4CCN(CC56CCC(CC5)CC6)CC4)c(C)c3C2=O)c(=O)[nH]1 [Example 9, (R)-2-(1-(1-(Bicyclo[2.2.2]octan-1-ylmethyl)piperidin-4-yl)ethyl)-5-((4,6-dimethyl-2-oxo-1,2-dihydropyridin-3-yl)methyl)-3-methyl-5,6,7,8-tetrahydro-4H-thieno[3,2-c]azepin-4-one] | ≤ 10 nM | 
8 | Cc1cc(C)c(CN2CCCc3sc([C@H](C)C4CCN(CC5CCCC5)CC4)c(C)c3C2=O)c(=O)[nH]1 [Example 4, (R)-2-(1-(1-(Cyclopentylmethyl)piperidin-4-yl)ethyl)-5-((4,6-dimethyl-2-oxo-1,2-dihydropyridin-3-yl)methyl)-3-methyl-5,6,7,8-tetrahydro-4H-thieno[3,2-c]azepin-4-one] | ≤ 10 nM | 
9 | Cc1cc(C)c(CN2CCCc3sc([C@H](C)C4CCN(CC5(C)CC5)CC4)c(C)c3C2=O)c(=O)[nH]1 [Example 11, (R)-5-((4,6-Dimethyl-2-oxo-1,2-dihydropyridin-3-yl)methyl)-3-methyl-2-(1-(1-((1-methylcyclopropyl)methyl)piperidin-4-yl)ethyl)-5,6,7,8-tetrahydro-4H-thieno[3,2-c]azepin-4-one] | ≤ 10 nM | 
10 | Cc1cc(C)c(CN2CCCc3sc([C@H](C)C4CCN(CC(C)(C)C)CC4)c(C)c3C2=O)c(=O)[nH]1 [Example 1, (R)-5-((4,6-Dimethyl-2-oxo-1,2-dihydropyridin-3-yl)methyl)-3-methyl-2-(1-(1-neopentylpiperidin-4-yl)ethyl)-5,6,7,8-tetrahydro-4H-thieno[3,2-c]azepin-4-one] | ≤ 10 nM | 
11 | Cc1cc(C)c(CN2CCCc3sc([C@H](C)C4CCN(CC(C)C)CC4)c(C)c3C2=O)c(=O)[nH]1 [Example 3, (R)-5-((4,6-Dimethyl-2-oxo-1,2-dihydropyridin-3-yl)methyl)-2-(1-(1-isobutylpiperidin-4-yl)ethyl)-3-methyl-5,6,7,8-tetrahydro-4H-thieno[3,2-c]azepin-4-one] | ≤ 10 nM | 
12 | CCC(C)(C)CN1CCC([C@@H](C)c2sc3c(c2C)C(=O)N(Cc2c(C)cc(C)[nH]c2=O)CCC3)CC1 [Example 5, (R)-5-((4,6-Dimethyl-2-oxo-1,2-dihydropyridin-3-yl)methyl)-2-(1-(1-(2,2-dimethylbutyl)piperidin-4-yl)ethyl)-3-methyl-5,6,7,8-tetrahydro-4H-thieno[3,2-c]azepin-4-one] | ≤ 10 nM | 
13 | Cc1cc(C)c(CN2CCCc3sc([C@H](C)C4CCN(CC5CCC5)CC4)c(C)c3C2=O)c(=O)[nH]1 [Example 2, (R)-2-(1-(1-(Cyclobutylmethyl)piperidin-4-yl)ethyl)-5-((4,6-dimethyl-2-oxo-1,2-dihydropyridin-3-yl)methyl)-3-methyl-5,6,7,8-tetrahydro-4H-thieno[3,2-c]azepin-4-one] | ≤ 10 nM | 
